According to patent publication US9458113B2 (Boehringer Ingelheim International GmbH, priority 2014, dated 2016):
pIC50: −log10 of the molar value.

The compounds below were run against Human neutrophil elastase (Homo sapiens (Human), UniProt P08246) (assay: Human Neutrophil Elastase Assay). Details: substrate MeOSuc-Ala-Ala-Pro-Val-AMC 250 μM, pH 7.5.
Human neutrophil elastase, sequence (P08246 30-247): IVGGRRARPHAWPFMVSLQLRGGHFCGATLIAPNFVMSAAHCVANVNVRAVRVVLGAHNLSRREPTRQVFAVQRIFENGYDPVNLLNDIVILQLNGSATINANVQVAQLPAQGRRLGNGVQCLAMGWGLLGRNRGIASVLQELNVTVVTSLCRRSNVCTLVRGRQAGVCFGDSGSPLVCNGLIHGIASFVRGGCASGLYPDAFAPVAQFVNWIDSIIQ
Assay type: biochemical
Description: The following buffers were used: Compound buffer: 100 mM Tris, 500 mM NaCl, adjusted to pH 7.5; Assay buffer: 100 mM Tris, 500 mM NaCl, adjusted to pH 7.5, containing 0.01% BSA.
Assay conditions: Test compounds were prediluted in DMSO and subsequently in compound buffer (5% DMSO final). […] After inactivation of the enzyme, fluorescence intensities were measured at 380 nm excitation and 460 nm emission wavelengths.
Each plate contains wells with a high value control (DMSO+enzyme+substrate) and wells with a low value control (DMSO+inactivated enzyme+substrate). IC50 values were estimated using a sigmoidal concentration response curve with variable slope. Means of low values were taken as 0%, means of high values as 100%.
`CC(C)NCc1cc(C#N)ccc1C1C2=C(CCC2=O)N(c2cccc(C(F)(F)F)c2)C(=O)N1C` (centres unmarked) [Example 9.1] showed a pIC50 of 8.68.
For `CN1C(=O)N(c2cccc(C(F)(F)F)c2)C2=C(C(=O)CC2)C1c1ccc(C#N)cc1CNC(C)(C)C` (centres unmarked) [Example 9.2], the pIC50 was 8.48.
`CN1C(=O)N(c2cccc(C(F)(F)F)c2)C2=C(C(=O)CC2)C1c1ccc(C#N)cc1CNC1CCOCC1` (centres unmarked) [Example 9.3] showed a pIC50 of 8.54.
With `CNCc1cc(C#N)ccc1C1C2=C(CCC2=O)N(c2cccc(C(F)(F)F)c2)C(=O)N1C` (centres unmarked) [Example 9.4] the pIC50 was 8.66.
`CN1C(=O)N(c2cccc(C(F)(F)F)c2)C2=C(C(=O)CC2)C1c1ccc(C#N)cc1-c1cnco1` (centres unmarked) [Example 10, 4-[3-Methyl-2,5-dioxo-1-(3-trifluoromethyl-phenyl)-2,3,4,5,6,7-hexahydro-1H-cyclopentapyrimidin-4-yl]-3-oxazol-5-yl-benzonitrile] was tested, and the pIC50 was 8.92.
`CN1C(=O)N(c2cccc(C(F)(F)F)c2)C2=C(C(=O)CC2)C1c1ccc(C#N)cc1-c1ccoc1` (centres unmarked) [Example 11, 3-Furan-3-yl-4-[3-methyl-2,5-dioxo-1-(3-trifluoromethyl-phenyl)-2,3,4,5,6,7-hexahydro-1H-cyclopentapyrimidin-4-yl]-benzonitrile] gave a pIC50 of 8.48.
`CN1C(=O)N(c2cccc(C(F)(F)F)c2)C2=C(C(=O)CC2)C1c1ccc(C#N)cc1-c1ccn(C)n1` (centres unmarked) [Example 11.1] gave a pIC50 of 8.06.
Work on `CN1C(=O)N(c2cccc(C(F)(F)F)c2)C2=C(C(=O)CC2)C1c1ccc(C#N)cc1-c1cncs1` (centres unmarked) [Example 11.3] yielded a pIC50 of 8.72.
`CN1C(=O)N(c2cccc(C(F)(F)F)c2)C2=C(C(=O)CC2)C1c1ccc(C#N)cc1C1=CCN(C(=O)OC(C)(C)C)C1` (centres unmarked) [Example 11.4, 3-{5-Cyano-2-[3-methyl-2,5-dioxo-1-(3-trifluoromethyl-phenyl)-2,3,4,5,6,7-hexahydro-1H-cyclopentapyrimidin-4-yl]-phenyl}-2,5-dihydro-pyrrole-1-carboxylic acid tert-butyl ester] was tested, and the pIC50 was 8.60.
`CN1C(=O)N(c2cccc(C(F)(F)F)c2)C2=C(C(=O)CC2)C1c1ccc(C#N)cc1C1=CCCO1` (centres unmarked) [Example 11.5] gave a pIC50 of over 9.00.
`CN1C(=O)N(c2cccc(C(F)(F)F)c2)C2=C(C(=O)CC2)C1c1ccc(C#N)cc1C1=CCN(C(=O)OC(C)(C)C)CC1` (centres unmarked) [Example 11.6, 4-{5-Cyano-2-[3-methyl-2,5-dioxo-1-(3-trifluoromethyl-phenyl)-2,3,4,5,6,7-hexahydro-1H-cyclopentapyrimidin-4-yl]-phenyl}-3,6-dihydro-2H-pyridine-1-carboxylic acid tert-butyl ester] was tested, and the pIC50 was 8.77.
Work on `CN1C(=O)N(c2cccc(C(F)(F)F)c2)C2=C(C(=O)CC2)C1c1ccc(C#N)cc1-c1ccn(C)c(=O)c1` (centres unmarked) [Example 11.7] yielded a pIC50 of 8.92.
`CN1C(=O)N(c2cccc(C(F)(F)F)c2)C2=C(C(=O)CC2)C1c1ccc(C#N)cc1-c1ccco1` (centres unmarked) [Example 11.8] showed a pIC50 of 8.48.
For `CN1C(=O)N(c2cccc(C(F)(F)F)c2)C2=C(C(=O)CC2)C1c1ccc(C#N)cc1-c1ccncc1` (centres unmarked) [Example 11.9], the pIC50 was 9.00.
Compound `CN1C(=O)N(c2cccc(C(F)(F)F)c2)C2=C(C(=O)CC2)C1c1ccc(C#N)cc1-c1cccnc1` (centres unmarked) [Example 11.10] has a pIC50 of 8.51.
With `CN1C(=O)N(c2cccc(C(F)(F)F)c2)C2=C(C(=O)CC2)C1c1ccc(C#N)cc1C1=CCOCC1` (centres unmarked) [Example 11.11] the pIC50 was over 9.00.
Compound `CN1C(=O)N(c2cccc(C(F)(F)F)c2)C2=C(C(=O)CC2)C1c1ccc(C#N)cc1-c1ccc2c(cnn2C)c1` (centres unmarked) [Example 11.12] has a pIC50 of 8.10.
With `COc1ccc(-c2cc(C#N)ccc2C2C3=C(CCC3=O)N(c3cccc(C(F)(F)F)c3)C(=O)N2C)cn1` (centres unmarked) [Example 11.13] the pIC50 was 8.41.
Compound `CN1C(=O)N(c2cccc(C(F)(F)F)c2)C2=C(C(=O)CC2)C1c1ccc(C#N)cc1-c1ccc2c(ccn2C)c1` (centres unmarked) [Example 11.14] has a pIC50 of 8.22.
`CN1C(=O)N(c2cccc(C(F)(F)F)c2)C2=C(C(=O)CC2)C1c1ccc(C#N)cc1-c1ccc2occc2c1` (centres unmarked) [Example 11.15] showed a pIC50 of 7.80.
For `CN1C(=O)N(c2cccc(C(F)(F)F)c2)C2=C(C(=O)CC2)C1c1ccc(C#N)cc1-c1ccc(=O)n(C)c1` (centres unmarked) [Example 11.16], the pIC50 was over 9.00.
With `CN1C(=O)N(c2cccc(C(F)(F)F)c2)C2=C(C(=O)CC2)C1c1ccc(C#N)cc1-c1nnco1` (centres unmarked) [Example 13, 4-[3-Methyl-2,5-dioxo-1-(3-trifluoromethyl-phenyl)-2,3,4,5,6,7-hexahydro-1H-cyclopentapyrimidin-4-yl]-3-[1,3,4]oxadiazol-2-yl-benzonitrile] the pIC50 was 8.68.
Compound `Cc1noc(-c2cc(C#N)ccc2C2C3=C(CCC3=O)N(c3cccc(C(F)(F)F)c3)C(=O)N2C)n1` (centres unmarked) [Example 13.2, 4-[3-Methyl-2,5-dioxo-1-(3-trifluoromethyl-phenyl)-2,3,4,5,6,7-hexahydro-1H-cyclopentapyrimidin-4-yl]-3-(3-methyl-[1,2,4]oxadiazol-5-yl)-benzonitrile] has a pIC50 of 8.55.
With `CN1C(=O)N(c2cccc(C(F)(F)F)c2)C2=C(C(=O)CC2)C1c1ccc(C#N)cc1C1=CCNC1` (centres unmarked) [Example 14, 3-(2,5-Dihydro-1H-pyrrol-3-yl)-4-[3-methyl-2,5-dioxo-1-(3-trifluoromethyl-phenyl)-2,3,4,5,6,7-hexahydro-1H-cyclopentapyrimidin-4-yl]-benzonitrile] the pIC50 was over 9.00.
Work on `CN1C(=O)N(c2cccc(C(F)(F)F)c2)C2=C(C(=O)CC2)C1c1ccc(C#N)cc1C1=CCNCC1` (centres unmarked) [Example 14.2] yielded a pIC50 of over 9.00.
For `CN1C(=O)N(c2cccc(C(F)(F)F)c2)C2=C(C(=O)CCC2)C1c1ccc(C#N)cc1-c1ccoc1` (centres unmarked) [Example 15, 3-Furan-3-yl-4-[3-methyl-2,5-dioxo-1-(3-trifluoromethyl-phenyl)-1,2,3,4,5,6,7,8-octahydro-quinazolin-4-yl]-benzonitrile], the pIC50 was 8.49.
In the case of `CN1C(=O)N(c2cccc(C(F)(F)F)c2)C2=C(C(=O)CCC2)C1c1ccc(C#N)cc1-c1ccn(C)n1` (centres unmarked) [Example 15.1], the pIC50 was 8.55.
For `CN1C(=O)N(c2cccc(C(F)(F)F)c2)C2=C(C(=O)CCC2)C1c1ccc(C#N)cc1-c1cnn(C)c1` (centres unmarked) [Example 15.2], the pIC50 was 8.62.
`CN1C(=O)N(c2cccc(C(F)(F)F)c2)C2=C(C(=O)CCC2)C1c1ccc(C#N)cc1-c1cncs1` (centres unmarked) [Example 15.3] was tested, and the pIC50 was 8.72.
`CN1C(=O)N(c2cccc(C(F)(F)F)c2)C2=C(C(=O)CCC2)C1c1ccc(C#N)cc1-c1cn[nH]c1` (centres unmarked) [Example 15.4] showed a pIC50 of 8.80.
`CN1C(=O)N(c2cccc(C(F)(F)F)c2)C2=C(C(=O)CCC2)C1c1ccc(C#N)cc1-c1ccco1` (centres unmarked) [Example 15.5] showed a pIC50 of 8.24.
Work on `CN1C(=O)N(c2cccc(C(F)(F)F)c2)C2=C(C(=O)CCC2)C1c1ccc(C#N)cc1C1=CCN(C(=O)OC(C)(C)C)C1` (centres unmarked) [Example 15.6] yielded a pIC50 of 7.97.
`CN1C(=O)N(c2cccc(C(F)(F)F)c2)C2=C(C(=O)CCC2)C1c1ccc(C#N)cc1C1=CCOCC1` (centres unmarked) [Example 15.9] gave a pIC50 of 8.89.
`CN1C(=O)N(c2cccc(C(F)(F)F)c2)C2=C(C(=O)CCC2)C1c1ccc(C#N)cc1C1=COCC1` (centres unmarked) [Example 15.10] gave a pIC50 of 8.82.
In the case of `CN1C(=O)N(c2cccc(C(F)(F)F)c2)C2=C(C(=O)CCC2)C1c1ccc(C#N)cc1C1=CCNCC1` (centres unmarked) [Example 16, 4-[3-Methyl-2,5-dioxo-1-(3-trifluoromethyl-phenyl)-1,2,3,4,5,6,7,8-octahydro-quinazolin-4-yl]-3-(1,2,3,6-tetrahydro-pyridin-4-yl)-benzonitrile], the pIC50 was over 9.00.
Work on `CN1C(=O)N(c2ccnc(C(F)(F)F)c2)C2=C(C(=O)CC2)C1c1ccc(C#N)cc1-c1ccoc1` (centres unmarked) [Example 17, 3-Furan-3-yl-4-[3-methyl-2,5-dioxo-1-(2-trifluoromethyl-pyridin-4-yl)-2,3,4,5,6,7-hexahydro-1H-cyclopentapyrimidin-4-yl]-benzonitrile] yielded a pIC50 of 7.95.
Work on `CN1C(=O)N(c2ccnc(C(F)(F)F)c2)C2=C(C(=O)CC2)C1c1ccc(C#N)cc1-c1ccn(C)n1` (centres unmarked) [Example 17.1] yielded a pIC50 of 7.30.
For `CN1C(=O)N(c2ccnc(C(F)(F)F)c2)C2=C(C(=O)CC2)C1c1ccc(C#N)cc1C1=CCN(C(=O)OC(C)(C)C)CC1` (centres unmarked) [Example 17.2, 4-{5-Cyano-2-[3-methyl-2,5-dioxo-1-(2-trifluoromethyl-pyridin-4-yl)-2,3,4,5,6,7-hexahydro-1H-cyclopentapyrimidin-4-yl]-phenyl}-3,6-dihydro-2H-pyridine-1-carboxylic acid tert-butyl ester], the pIC50 was 8.34.
`CN1C(=O)N(c2ccnc(C(F)(F)F)c2)C2=C(C(=O)CC2)C1c1ccc(C#N)cc1-c1ccn(C)c(=O)c1` (centres unmarked) [Example 17.3] showed a pIC50 of 7.97.
Work on `CN1C(=O)N(c2ccnc(C(F)(F)F)c2)C2=C(C(=O)CC2)C1c1ccc(C#N)cc1C1=CCNCC1` (centres unmarked) [Example 18, 4-[3-Methyl-2,5-dioxo-1-(2-trifluoromethyl-pyridin-4-yl)-2,3,4,5,6,7-hexahydro-1H-cyclopentapyrimidin-4-yl]-3-(1,2,3,6-tetrahydro-pyridin-4-yl)-benzonitrile] yielded a pIC50 of 8.77.
`N#Cc1ccc(C2NC(=O)N(c3cccc(C(F)(F)F)c3)C3=C2C(=O)CC3)c(-c2ccoc2)c1` (centres unmarked) [Example 19, 4-[2,5-Dioxo-1-(3-trifluoromethyl-phenyl)-2,3,4,5,6,7-hexahydro-1H-cyclopentapyrimidin-4-yl]-3-furan-3-yl-benzonitrile] showed a pIC50 of 8.00.
